Where only a bound is given, the exact number is not on record here.

`CNS(=O)(=O)Cc1ccc(NC(=O)CCc2oc(-n3ccnc3)nc2-c2ccc(Cl)cc2)cc1` [Example 44, 3-[2-(1H-imidazol-1-yl)-4-(4-chlorophenyl)-5-oxazolyl]-N-(4-{[(methylamino)sulfonyl]methyl}phenyl)propionamide] yielded a melting point of 224 to 225 °C. As for `COC(=O)c1ccc(NC(=O)CCc2sc(-c3ccccc3)nc2-c2ccc(Cl)cc2)cc1` [Example 45, 3-[4-(4-chlorophenyl)-2-phenyl-5-thiazolyl]-N-[4-(methoxycarbonyl)phenyl]propionamide], the melting point lay within 177 to 178 °C. The value for `NC(=O)CCc1sc(-c2ccccc2)nc1-c1ccc(Cl)cc1` [Example 46, 3-[4-(4-chlorophenyl)-2-phenyl-5-thiazolyl]propionamide] was 175 to 176 °C. Compound `CCNC(=O)CCCc1oc(-c2ccccc2)nc1-c1ccc(Cl)cc1` [Example 49, N-ethyl-4-[4-(4-chlorophenyl)-2-phenyl-5-oxazolyl]butanamide] gave a melting point of 127 to 128 °C. `COC(=O)c1ccc(NC(=O)CCCc2oc(-c3ccccc3)nc2-c2ccc(Cl)cc2)cc1` [Example 50, 4-[4-(4-chlorophenyl)-2-phenyl-5-oxazolyl]-N-[4-(methoxycarbonyl)phenyl]butanamide] displayed a melting point of 170 to 171 °C. In turn, `O=C(CCCc1oc(-c2ccccc2)nc1-c1ccc(Cl)cc1)N1CCN(c2ccccc2)CC1` [Example 51, 1-{4-[4-(4-chlorophenyl)-2-phenyl-5-oxazolyl]butanoyl}-4-phenylpiperazine] gave a melting point of 104 to 105 °C.

In turn, `NC(=O)CCCc1oc(-c2ccccc2)nc1-c1ccc(Cl)cc1` [Example 52, 4-[4-(4-chlorophenyl)-2-phenyl-5-oxazolyl]butanamide] had a melting point of 168 to 169 °C. In turn, `NC(=O)/C=C/c1oc(-c2ccccc2)nc1-c1ccc(Cl)cc1` [Example 55, (2E)-3-[4-(4-chlorophenyl)-2-phenyl-5-oxazolyl]propenamide] came in with a melting point of 240 to 241 °C. The value for `CCOC(=O)c1ccc(NC(=O)/C=C/c2oc(-c3ccccc3)nc2-c2ccc(Cl)cc2)cc1` [Example 56, (2E)-3-[4-(4-chlorophenyl)-2-phenyl-5-oxazolyl]-N-[4-(ethoxycarbonyl)phenyl]propenamide] was 135 to 140 °C; that for `O=C(CCc1oc(-c2ccccc2)nc1-c1ccc(Cl)cc1)Nc1ccc(C(=O)O)cc1` [Example 63, 4-({3-[4-(4-chlorophenyl)-2-phenyl-5-oxazolyl]propanoyl}amino)benzoic acid] was 243 to 244 °C. `O=C(CCc1sc(-c2ccccc2)nc1-c1ccc(Cl)cc1)Nc1ccc(C(=O)O)cc1` [Example 64, 4-({3-[4-(4-chlorophenyl)-2-phenyl-5-thiazolyl]propanoyl}amino)benzoic acid] registered a melting point of 294 to 295 °C. For `O=C(/C=C/c1oc(-c2ccccc2)nc1-c1ccc(Cl)cc1)Nc1ccc(C(=O)O)cc1` [Example 65, 4-({(2E)-3-[4-(4-chlorophenyl)-2-phenyl-5-oxazolyl]propenoyl}amino)benzoic acid] the value was 275 to 276 °C; for `NC(=O)c1ccc(NC(=O)CCc2oc(-c3ccccc3)nc2-c2ccc(Cl)cc2)cc1` [Example 66, 4-({3-[4-(4-chlorophenyl)-2-phenyl-5-oxazolyl]propanoyl}amino)benzamide], 268 to 269 °C; for `NC(=O)c1ccc(NC(=O)CCc2sc(-c3ccccc3)nc2-c2ccc(Cl)cc2)cc1` [Example 67, 4-({3-[4-(4-chlorophenyl)-2-phenyl-5-thiazolyl]propanoyl}amino)benzamide], ≥ 300 °C (dec.). For `NC(=O)c1ccc(NC(=O)/C=C/c2oc(-c3ccccc3)nc2-c2ccc(Cl)cc2)cc1` [Example 68, 4-({(2E)-3-[4-(4-chlorophenyl)-2-phenyl-5-oxazolyl]propenoyl}amino)benzamide] the value was 274 to 275 °C; for `COc1ccccc1NC(=O)CCc1oc(-n2ccnc2C)nc1-c1ccc(Cl)cc1` [Example 71, 3-[4-(4-chlorophenyl)-2-(2-methyl-1-imidazolyl)-5-oxazolyl]-N-(2-methoxyphenyl)propionamide], 153 to 154 °C; for `CCOC(=O)Cc1ccc(NC(=O)CCc2oc(-n3cnc4ccccc43)nc2-c2ccc(Cl)cc2)cc1` [Example 76, 3-[2-(1H-benzimidazol-1-yl)-4-(4-chlorophenyl)-5-oxazolyl]-N-[4-(ethoxycarbonylmethyl)phenyl]propionamide], 181 to 182 °C. For `O=C(CCc1oc(-n2cnc3ccccc32)nc1-c1ccc(Cl)cc1)Nc1ccc(Cl)cc1` [Example 79, 3-[2-(1H-benzimidazol-1-yl)-4-(4-chlorophenyl)-5-oxazolyl]-N-(4-chlorophenyl)propionamide] the value was 248 to 249 °C; for `CN(Cc1ccc(NC(=O)CCc2oc(-n3cnc4ccccc43)nc2-c2ccc(Cl)cc2)cc1)C1CCOCC1` [Example 87, 3-[2-(1H-benzimidazol-1-yl)-4-(4-chlorophenyl)-5-oxazolyl)-N-(4-{[N-methyl-N-(4-tetrahydropyranyl)amino]methyl}phenyl)propionamide], 182 to 184 °C; for `O=C(CCc1oc(-n2cnc3ccccc32)nc1-c1ccc(Cl)cc1)Nc1ccc(CN2CCCCC2)cc1` [Example 88, 3-[2-(1H-benzimidazol-1-yl)-4-(4-chlorophenyl)-5-oxazolyl]-N-{4-[(1-piperidinyl)methyl]phenyl}propionamide], 194 to 195 °C.

`N#CCc1ccc(NC(=O)CCc2oc(-n3cnc4ccccc43)nc2-c2ccc(Cl)cc2)cc1` [Example 89, 3-[2-(1H-benzimidazol-1-yl)-4-(4-chlorophenyl)-5-oxazolyl]-N-[4-(cyanomethyl)phenyl]propionamide] displayed a melting point of 212 to 214 °C. The value for `O=C(O)Cc1ccc(NC(=O)CCc2oc(-n3cnc4ccccc43)nc2-c2ccc(Cl)cc2)cc1` [Example 90, 4-({3-[2-(1H-benzimidazol-1-yl)-4-(4-chlorophenyl)-5-oxazolyl]propanoyl)amino}phenylacetic acid] was 247 to 248 °C; that for `COC(=O)c1ccc(NC(=O)CCc2oc(-n3cnc4ccccc43)nc2-c2ccc(Cl)cc2)cc1` [Example 91, 3-[2-(1H-benzimidazol-1-yl)-4-(4-chlorophenyl)-5-oxazolyl]-N-[4-(methoxycarbonyl)phenyl]propionamide] was 249 to 250 °C; that for `O=C(CCc1oc(-n2cnc3ccccc32)nc1-c1ccc(Cl)cc1)NCCc1ccccn1` [Example 92, 3-[2-(1H-benzimidazol-1-yl)-4-(4-chlorophenyl)-5-oxazolyl]-N-[2-(2-pyridinyl)ethyl]propionamide] was 150 to 151 °C.

For `O=C(CCc1oc(-n2cnc3ccccc32)nc1-c1ccc(Cl)cc1)N1CCN(c2ccccn2)CC1` [Example 93, 1-{3-[2-(1H-benzimidazol-1-yl)-4-(4-chlorophenyl)-5-oxazolyl]propanoyl}-4-(2-pyridinyl)piperazine], the melting point lay within 174 to 176 °C. For `CN(Cc1ccc(NC(=O)CCc2oc(-c3ccccc3)nc2-c2ccc(Cl)cc2)cc1)C1CCOCC1` [Example 94, 3-[4-(4-chlorophenyl)-2-phenyl-5-oxazolyl]-N-(4-{[N-methyl-N-(4-tetrahydropyranyl)amino]methyl}phenyl)propionamide] the value was 154 to 155 °C. In turn, `O=C(CCc1oc(-c2ccccc2)nc1-c1ccc(Cl)cc1)Nc1ccc(CN2CCCCC2)cc1` [Example 95, 3-[4-(4-chlorophenyl)-2-phenyl-5-oxazolyl]-N-{4-[(1-piperidinyl)methyl]phenyl}propionamide] registered a melting point of 223 to 225 °C. `CSc1ccc(NC(=O)CCc2oc(-n3cnc4ccccc43)nc2-c2ccc(Cl)cc2)cc1` [Example 96, 3-[2-(1H-benzimidazol-1-yl)-4-(4-chlorophenyl)-5-oxazolyl]-N-{4-(methylsulfanyl)phenyl}propionamide] yielded a melting point of 276 to 277 °C. Compound `O=C(CCCc1oc(-n2cnc3ccccc32)nc1-c1ccc(Cl)cc1)Nc1ccc(S(=O)(=O)Nc2nccs2)cc1` [Example 104, 4-[2-(1H-benzimidazol-1-yl)-4-(4-chlorophenyl)-5-oxazolyl]-N-(4-{[(2-thiazolyl)amino]sulfonyl}phenyl)butanamide] showed a melting point of 243 to 244 °C. The value for `N#CCc1ccc(NC(=O)CCc2oc(-c3ccccc3)nc2-c2ccc(Cl)cc2)cc1` [Example 105, 3-[4-(4-chlorophenyl)-2-phenyl-5-oxazolyl]-N-[4-(cyanomethyl)phenyl]propionamide] was 212 to 214 °C; that for `CCN(CC)C(=O)Cc1ccc(NC(=O)CCc2oc(-n3cnc4ccccc43)nc2-c2ccc(Cl)cc2)cc1` [Example 106, 2-[4-({3-[2-(1H-benzimidazol-1-yl)-4-(4-chlorophenyl)-5-oxazolyl]propanoyl}amino)phenyl]-N,N-diethylacetamide] was 209 to 210 °C; that for `O=C(CCc1oc(-n2cnc3ccccc32)nc1-c1ccc(Cl)cc1)Nc1cccc(CO)c1` [Example 108, 3-[2-(1H-benzimidazol-1-yl)-4-(4-chlorophenyl)-5-oxazolyl]-N-[3-(hydroxymethyl)phenyl]propionamide] was 206 to 207 °C. The compound `O=C(CCc1oc(-n2cnc3ccccc32)nc1-c1ccc(Cl)cc1)Nc1ccccc1CO` [Example 109, 3-[2-(1H-benzimidazol-1-yl)-4-(4-chlorophenyl)-5-oxazolyl]-N-[2-(hydroxymethyl)phenyl]propionamide] yielded a melting point of 159 to 160 °C. The value for `N#CCc1cccc(NC(=O)CCc2oc(-n3cnc4ccccc43)nc2-c2ccc(Cl)cc2)c1` [Example 110, 3-[2-(1H-benzimidazol-1-yl)-4-(4-chlorophenyl)-5-oxazolyl]-N-[3-(cyanomethyl)phenyl]propionamide] was 188 to 189 °C. For `N#CCc1ccccc1NC(=O)CCc1oc(-n2cnc3ccccc32)nc1-c1ccc(Cl)cc1` [Example 111, 3-[2-(1H-benzimidazol-1-yl)-4-(4-chlorophenyl)-5-oxazolyl]-N-[2-(cyanomethyl)phenyl]propionamide] the value was 235 to 236 °C.

The values are drawn from US7183276B2, “Azole compounds” (Takeda Pharmaceutical Company Limited, priority 2002, dated 2007).
